ChEMBL document CHEMBL1629553, “Antimalarial activity of a new stilbene glycoside from Parthenocissus tricuspidata in mice” (Antimicrob Agents Chemother, 2008)
Active and inactive are the calls of the source. No cut-off for these calls is given here.

How the values were obtained:
[1] = test system: Plasmodium berghei; assay: Antimalarial activity against chloroquine-sensitive Plasmodium berghei ATCC 50175 infected in ICR mouse assessed as parasitemia at 5 mg/kg/day, po administered 24 hrs post-treatment measured after 4 days (reference value: 56.3+/-0.16 %); format: functional
[2] = test system: Plasmodium berghei; assay: Antimalarial activity against chloroquine-sensitive Plasmodium berghei ATCC 50175 infected in ICR mouse assessed as chemosuppression of parasitemia at 5 mg/kg/day, po administered 24 hrs post-treatment measured after 4 days; format: functional
[3] = test system: Plasmodium berghei; assay: Antimalarial activity against chloroquine-sensitive Plasmodium berghei ATCC 50175 infected ICR mouse assessed as survival of mouse at 5 mg/kg/day, po for 4 days measured after 30 days; format: functional, organism-based
[4] = test system: Plasmodium berghei; assay: Antimalarial activity against chloroquine-sensitive Plasmodium berghei ATCC 50175 infected ICR mouse assessed as survival of mouse at 5 mg/kg/day, po for 4 days measured after 25 days; format: functional, organism-based
[5] = test system: Plasmodium berghei; assay: Antimalarial activity against chloroquine-sensitive Plasmodium berghei ATCC 50175 infected ICR mouse assessed as survival of mouse at 10 mg/kg/day, po for 4 days measured after 27 days; format: functional, organism-based
[6] = test system: Plasmodium berghei; assay: Antimalarial activity against chloroquine-sensitive Plasmodium berghei ATCC 50175 infected ICR mouse assessed as survival of mouse at 25 mg/kg/day, po for 4 days measured after 30 days; format: functional, organism-based
[7] = test system: Plasmodium berghei; assay: Antimalarial activity against chloroquine-sensitive Plasmodium berghei ATCC 50175 infected in ICR mouse assessed as parasitemia at 1.2 mg/kg/day, po pretreated for 4 days before infection and measured after 72 hrs (reference value: 4.6+/-0.21 %); format: functional
[8] = test system: Plasmodium berghei; assay: Antimalarial activity against chloroquine-sensitive Plasmodium berghei ATCC 50175 infected in ICR mouse assessed as chemosuppression of parasitemia at 1.2 mg/kg/day, po pretreated for 4 days before infection and measured after 72 hrs; format: functional
[9] = test system: Plasmodium berghei; assay: Antimalarial activity against chloroquine-sensitive Plasmodium berghei ATCC 50175 infected in ICR mouse assessed as parasitemia at 10 mg/kg/day, po administered 24 hrs post-treatment measured after 4 days (reference value: 56.3+/-0.16 %); format: functional
[10] = test system: Plasmodium berghei; assay: Antimalarial activity against chloroquine-sensitive Plasmodium berghei ATCC 50175 infected in ICR mouse assessed as parasitemia at 25 mg/kg/day, po administered 24 hrs post-treatment measured after 4 days (reference value: 56.3+/-0.16 %); format: functional
[11] = test system: Plasmodium berghei; assay: Antimalarial activity against chloroquine-sensitive Plasmodium berghei ATCC 50175 infected in ICR mouse assessed as chemosuppression of parasitemia at 10 mg/kg/day, po administered 24 hrs post-treatment measured after 4 days; format: functional
[12] = test system: Plasmodium berghei; assay: Antimalarial activity against chloroquine-sensitive Plasmodium berghei ATCC 50175 infected in ICR mouse assessed as chemosuppression of parasitemia at 25 mg/kg/day, po administered 24 hrs post-treatment measured after 4 days; format: functional
[13] = test system: Plasmodium berghei; assay: Antimalarial activity against chloroquine-sensitive Plasmodium berghei ATCC 50175 infected in ICR mouse assessed as parasitemia at 5 mg/kg/day, po pretreated for 4 days before infection and measured after 72 hrs (reference value: 4.6+/-0.21 %); format: functional
[14] = test system: Plasmodium berghei; assay: Antimalarial activity against chloroquine-sensitive Plasmodium berghei ATCC 50175 infected in ICR mouse assessed as parasitemia at 10 mg/kg/day, po pretreated for 4 days before infection and measured after 72 hrs (reference value: 4.6+/-0.21 %); format: functional
[15] = test system: Plasmodium berghei; assay: Antimalarial activity against chloroquine-sensitive Plasmodium berghei ATCC 50175 infected in ICR mouse assessed as parasitemia at 25 mg/kg/day, po pretreated for 4 days before infection and measured after 72 hrs (reference value: 4.6+/-0.21 %); format: functional
[16] = test system: Plasmodium berghei; assay: Antimalarial activity against chloroquine-sensitive Plasmodium berghei ATCC 50175 infected in ICR mouse assessed as chemosuppression of parasitemia at 5 mg/kg/day, po pretreated for 4 days before infection and measured after 72 hrs; format: functional
[17] = test system: Plasmodium berghei; assay: Antimalarial activity against chloroquine-sensitive Plasmodium berghei ATCC 50175 infected in ICR mouse assessed as chemosuppression of parasitemia at 10 mg/kg/day, po pretreated for 4 days before infection and measured after 72 hrs; format: functional
[18] = test system: Plasmodium berghei; assay: Antimalarial activity against chloroquine-sensitive Plasmodium berghei ATCC 50175 infected in ICR mouse assessed as chemosuppression of parasitemia at 25 mg/kg/day, po pretreated for 4 days before infection and measured after 72 hrs; format: functional
[19] = test system: Mus musculus; assay: Toxicity against chloroquine-sensitive Plasmodium berghei ATCC 50175 infected ICR mouse at 5 to 25 mg/kg, po; format: organism-based; parameters: dose 5-25 mg/kg, route oral; conditions: in vivo
[20] = test system: Plasmodium berghei; assay: Antimalarial activity against chloroquine-sensitive Plasmodium berghei ATCC 50175 infected in ICR mouse assessed as reduced parasitemia at 5 mg/kg/day, po administered 24 hrs post-treatment measured on day 3; format: functional; parameters: scale not given: the % may be the effect or the level left
[21] = test system: Plasmodium berghei; assay: Antimalarial activity against chloroquine-sensitive Plasmodium berghei ATCC 50175 infected in ICR mouse assessed as reduced parasitemia at 10 mg/kg/day, po administered 24 hrs post-treatment measured on day 3; format: functional; parameters: scale not given: the % may be the effect or the level left
[22] = test system: Plasmodium berghei; assay: Antimalarial activity against chloroquine-sensitive Plasmodium berghei ATCC 50175 infected in ICR mouse assessed as reduced parasitemia at 25 mg/kg/day, po administered 24 hrs post-treatment measured on day 3; format: functional; parameters: scale not given: the % may be the effect or the level left
[23] = test system: Plasmodium berghei; assay: Antimalarial activity against chloroquine-sensitive Plasmodium berghei ATCC 50175 infected in ICR mouse assessed as reduced parasitemia at 5 mg/kg/day, po administered 24 hrs post-treatment for 4 day measured on day 7; format: functional; parameters: scale not given: the % may be the effect or the level left
[24] = test system: Plasmodium berghei; assay: Antimalarial activity against chloroquine-sensitive Plasmodium berghei ATCC 50175 infected in ICR mouse assessed as reduced parasitemia at 10 mg/kg/day, po administered 24 hrs post-treatment for 4 day measured on day 7; format: functional; parameters: scale not given: the % may be the effect or the level left
[25] = test system: Plasmodium berghei; assay: Antimalarial activity against chloroquine-sensitive Plasmodium berghei ATCC 50175 infected in ICR mouse assessed as reduced parasitemia at 25 mg/kg/day, po administered 24 hrs post-treatment for 4 day measured on day 7; format: functional; parameters: scale not given: the % may be the effect or the level left
[26] = test system: Plasmodium berghei; assay: Antimalarial activity against chloroquine-sensitive Plasmodium berghei ATCC 50175 infected ICR mouse assessed as increase in mouse survival at 5 to 25 mg/kg/day, po administered 24 hrs post-treatment; format: functional

**Q.** What does the source list for `CCN(CC)CCCC(C)Nc1ccnc2cc(Cl)ccc12` (stereo not drawn) [CHLOROQUINE]?
**A.** Activity [1]: 6.2%; Activity [2]: 89.3%; Activity [3]: Active; Activity [4]: Active; Activity [5]: Active; Activity [6]: Active

**Q.** `CCc1nc(N)nc(N)c1-c1ccc(Cl)cc1` [PYRIMETHAMINE] was tested. Which Activity [7] did it give?
**A.** The Activity was 4.6%.

**Q.** What about the Activity [8] of the same compound?
**A.** Its Activity is 91.8%.

**Q.** Which Activity [1] does the source give for `OC[C@H]1O[C@@H](OC[C@@H]2O[C@H](Oc3cc(O)cc(/C=C/c4ccc(O)cc4)c3)[C@@H](O)[C@H](O)[C@H]2O)[C@H](O)[C@@H](O)[C@@H]1O` here?
**A.** The Activity was 31.3%.

**Q.** What about the Activity [9] of the same compound?
**A.** The Activity was 22.4%.

**Q.** And the Activity [10]?
**A.** Its Activity is 15.2%.

**Q.** And the Activity [2]?
**A.** The Activity was 44.3%.

**Q.** What about the Activity [11] of the same compound?
**A.** Its Activity is 60.2%.

**Q.** What about the Activity [12] of the same compound?
**A.** The Activity was 73.2%.

**Q.** And the Activity [13]?
**A.** The Activity was 23.2%.

**Q.** What about the Activity [14] of the same compound?
**A.** Its Activity is 16.5%.

**Q.** What about the Activity [15] of the same compound?
**A.** Its Activity is 11.3%.

**Q.** What about the Activity [16] of the same compound?
**A.** Its Activity is 58.7%.

**Q.** What about the Activity [17] of the same compound?
**A.** Its Activity is 70.6%.

**Q.** And the Activity [18]?
**A.** Its Activity is 80.1%.

**Q.** What about the Activity [19] of the same compound?
**A.** Its Activity is “Non-toxic”.

**Q.** What about the Activity [20] of the same compound?
**A.** Its Activity is 6.25%.

**Q.** What about the Activity [21] of the same compound?
**A.** Its Activity is 18.75%.

**Q.** What about the Activity [22] of the same compound?
**A.** Its Activity is 34.37%.

**Q.** What about the Activity [23] of the same compound?
**A.** Its Activity is 73.6%.

**Q.** What about the Activity [24] of the same compound?
**A.** Its Activity is 86.3%.

**Q.** What about the Activity [25] of the same compound?
**A.** Its Activity is 89.4%.

**Q.** What about the Time [26] of the same compound?
**A.** Its Time is 96 h.
